In patent US20230146455A1, “TREATMENT OF INFLAMMATORY DISEASES WITH PEPTIDES AND PHARMACEUTICAL COMPOSITIONS” (Yuyu Pharma, Inc., priority 2020, published 2023):
Values joined by “and” are separate entries in the source; they are usually repeats but may differ in a detail not shown here. Equal entries are not always repeated. Where a SMILES comes first, the peptide text is derived from it. [ ]: non-standard residue; d: D form. Hyp = O=C(O)[C@@H]1C[C@@H](O)CN1

Experiments:
IL-2 = assay: Example 9 Luminex, LPS hPBMCs: IL-2; assay type: cell-based, human; conditions: for IL-2 Concentration: dilution 2.0
Method: (§1) Treatment Human PBMCs were pretreated with YY-101, YDE-011 and YDE-043 or reference compound; Xiidra® at various concentration (ranging from 1 nM to 100 uM) for 2 h before stimulation. An equal volume of 0.5% DMSO was used as a vehicle control. Then, the cells were treated with LPS at 5 ug/ml. The supernatants from treated cells were harvested at 24 h and placed in a 96 well for Luminex cytokine & chemokine profiling using a Luminex 200 multiplex assay (Luminex; R&D system, USA).
(§2) The main study arm with triplicate wells per group in a 24-well plate: • 1. Blank • 2. PBMC: 0.5% DMSO • 3. PBMC+LPS (5 ug/ml) • 4. PBMC+YY-101 100 uM • 5. PBMC+YY-101 10 uM • 6. PBMC+YY-101 1 uM • 7. PBMC+YY-101 0.1 uM • 8. PBMC+YY-101 0.01 uM • 9. PBMC+LPS (5 ug/ml)+Xiidra®100 uM • 10. PBMC+LPS (5 ug/ml)+Xiidra® 10 uM • 11. PBMC+LPS (5 ug/ml)+Xiidra® 1 uM • 12. PBMC+LPS (5 ug/ml)+Xiidra®0.1 uM • 13. PBMC+LPS (5 ug/ml)+Xiidra®0.01 uM • 14. PBMC+LPS (5 ug/ml)+Xiidra®0.001 uM • 15. PBMC+LPS (5 ug/ml)+YY-101 100 uM • 16. PBMC+LPS (5 ug/ml)+YY-101 10 uM • 17. PBMC+LPS (5 ug/ml)+YY-101 1 uM • 18. PBMC+LPS (5 ug/ml)+YY-101 0.1 uM • 19. PBMC+LPS (5 ug/ml)+YY-101 0.01 uM • 20. PBMC+LPS (5 ug/ml)+YY-101 0.001 uM • 21. PBMC+LPS (5 ug/ml)+YDE-011 100 uM • 22. PBMC+LPS (5 ug/ml)+YDE-011 10 uM • 23. PBMC+LPS (5 ug/ml)+YDE-011 1 uM • 24. PBMC+LPS (5 ug/ml)+YDE-011 0.1 uM • 25. PBMC+LPS (5 ug/ml)+YDE-011 0.01 uM • 26. PBMC+LPS (5 ug/ml)+YDE-011 0.001 uM • 27. PBMC+LPS (5 ug/ml)+YDE-043 100 uM • 28. PBMC+LPS (5 ug/ml)+YDE-043 10 uM • 29. PBMC+LPS (5 ug/ml)+YDE-043 1 uM • 30. PBMC+LPS (5 ug/ml)+YDE-043 0.1 uM • 31. PBMC+LPS (5 ug/ml)+YDE-043 0.01 uM • 32. PBMC+LPS (5 ug/ml)+YDE-043 0.001 uM
Multiplex assay was used to measure 30 cytokines and chemokines. The 1:2, 1:10 and 1:200 diluted cell supernatant and serial dilution of the standard were dispensed into a 96 well plate at 50 ul/well. Then, the pre-mixed cocktail of antibody-coated magnetic beads was dispensed at 50 ul/well and incubated at room temperature for 2 h in a horizontal orbital microplate shaker at 800±500 rpm. The beads were washed using a magnetic device to prevent loss. The biotin-antibody was dispensed in 50 ul of each well and incubated at room temperature for 1 h in a shaker at 800±500 rpm. After washing, streptavidin-PE was added at 50 ul/well and incubated at room temperature for 30 min in a shaker under the same conditions. Finally, after washing, wash buffer (100 ul/well) was added to the plate and incubated in a shaker for 2 min. The Luminex™ 200 setting were set according to the manufacturer's protocol. The data was calculated with a standard five-parameter logistic nonlinear regression analysis of the data (xPonent software 4.2, USA). The levels of cytokine/chemokine are normalized to the live cell counts (1×10^5 cells/mL) and presented as concentrations per mL (pg/mL or ng/mL).

[1] = PBMC cell counts (total, live, viability; trypan blue, Countess) with and without LPS and test articles (Example 9); assay type: cell-based, human; conditions: human, PBMCs, 24 hr
Method: as §1, §2
The number of PBMCs was measured after 24 hr of treatment. The culture both and trypan blue were diluted 1:1 and 10 ul was added to Countess cell counting chamber (Thermo fisher, USA). The number of PBMCs was measured using a Countess automated cell counter (Thermo fisher, USA).

[2] = PBMC + LPS(5 ug/ml) + test article 0.001 uM, Mean
[3] = PBMC + LPS(5 ug/ml) + test article 0.001 uM, single replicates
[4] = PBMC + LPS(5 ug/ml) + test article 0.01 uM, Mean
[5] = PBMC + LPS(5 ug/ml) + test article 0.01 uM, single replicates
[6] = PBMC + LPS(5 ug/ml) + test article 0.1 uM, Mean
[7] = PBMC + LPS(5 ug/ml) + test article 0.1 uM, single replicates
[8] = PBMC + LPS(5 ug/ml) + test article 1 uM, Mean
[9] = PBMC + LPS(5 ug/ml) + test article 1 uM, single replicates
[10] = PBMC + LPS(5 ug/ml) + test article 10 uM, Mean
[11] = PBMC + LPS(5 ug/ml) + test article 10 uM, single replicates
[12] = PBMC + LPS(5 ug/ml) + test article 100 uM, Mean
[13] = PBMC + LPS(5 ug/ml) + test article 100 uM, single replicates
[14] = PBMC + test article 0.01 uM, no LPS, Mean
[15] = PBMC + test article 0.01 uM, no LPS, single replicates
[16] = PBMC + test article 0.1 uM, no LPS, Mean
[17] = PBMC + test article 0.1 uM, no LPS, single replicates
[18] = PBMC + test article 1 uM, no LPS, Mean
[19] = PBMC + test article 1 uM, no LPS, single replicates
[20] = PBMC + test article 10 uM, no LPS, Mean
[21] = PBMC + test article 10 uM, no LPS, single replicates
[22] = PBMC + test article 100 uM, no LPS, Mean
[23] = PBMC + test article 100 uM, no LPS, single replicates

CC(C)C[C@H](NC(=O)CNC(=O)[C@H](CC(=O)O)NC(=O)[C@H](CCC(N)=O)NC(=O)CNC(=O)[C@@H]1C[C@@H](O)CN1)C(=O)N[C@@H](C)C(=O)NCC(=O)N1CCC[C@H]1C(=O)N[C@@H](CCCCN)C(=O)O [YY-101] (H-[Hyp]GQDGLAGPK-OH; N-terminus and C-terminus assumed)
IL-2 conc/live cell (IL-2; [2]): 0.9 pg/10^5 | MFI, Bead name: IL-2 (IL-2; [2]): 16.3 | IL-2 Concentration (IL-2; [2]): 5.7 pg/mL | IL-2 Concentration (IL-2; [3]): 3.4 pg/mL and 7.6 pg/mL and 6.2 pg/mL | IL-2 conc/live cell (IL-2; [3]): 0.6 pg/10^5 and 1.1 pg/10^5 and 0.9 pg/10^5 | MFI, Bead name: IL-2 (IL-2; [3]): 13.0 and 19.0 and 17.0 | IL-2 conc/live cell (IL-2; [4]): 1.4 pg/10^5 | MFI, Bead name: IL-2 (IL-2; [4]): 20.3 | IL-2 Concentration (IL-2; [4]): 8.6 pg/mL | IL-2 Concentration (IL-2; [5]): 6.9 pg/ml (2×) and 11.8 pg/ml | IL-2 conc/live cell (IL-2; [5]): 1.1 pg/10^5 (2×) and 2.0 pg/10^5 | MFI, Bead name: IL-2 (IL-2; [5]): 18.0 (2×) and 25.0 | IL-2 conc/live cell (IL-2; [6]): 0.0 pg/10^5 | MFI, Bead name: IL-2 (IL-2; [6]): 6.3 | IL-2 conc/live cell (IL-2; [7]): 0.0 pg/10^5 | MFI, Bead name: IL-2 (IL-2; [7]): 8.0 (2×) and 3.0 | IL-2 conc/live cell (IL-2; [8]): 0.6 pg/10^5 | MFI, Bead name: IL-2 (IL-2; [8]): 13.7 | IL-2 Concentration (IL-2; [8]): 3.8 pg/mL | IL-2 Concentration (IL-2; [9]): 5.2 pg/mL and 3.7 pg/mL and 2.6 pg/mL | IL-2 conc/live cell (IL-2; [9]): 0.8 pg/10^5 and 0.5 pg/10^5 and 0.4 pg/10^5 | MFI, Bead name: IL-2 (IL-2; [9]): 15.5 and 13.5 and 12.0 | IL-2 conc/live cell (IL-2; [10]): 0.8 pg/10^5 | MFI, Bead name: IL-2 (IL-2; [10]): 15.7 | IL-2 Concentration (IL-2; [10]): 5.3 pg/mL | IL-2 Concentration (IL-2; [11]): 8.0 pg/mL and 4.1 pg/mL and 3.7 pg/mL | IL-2 conc/live cell (IL-2; [11]): 1.3 pg/10^5 and 0.6 pg/10^5 and 0.5 pg/10^5 | MFI, Bead name: IL-2 (IL-2; [11]): 19.5 and 14.0 and 13.5 | IL-2 conc/live cell (IL-2; [12]): 0.1 pg/10^5 | MFI, Bead name: IL-2 (IL-2; [12]): 9.0 | IL-2 Concentration (IL-2; [12]): 1.1 pg/mL | IL-2 Concentration (IL-2; [13]): 1.9 pg/mL and 0.4 pg/mL | IL-2 conc/live cell (IL-2; [13]): 0.3 pg/10^5 and 0.1 pg/10^5 and 0.0 pg/10^5 | MFI, Bead name: IL-2 (IL-2; [13]): 11.0 and 9.0 and 7.0 | IL-2 conc/live cell (IL-2; [14]): 11.5 pg/10^5 | MFI, Bead name: IL-2 (IL-2; [14]): 93.3 | IL-2 Concentration (IL-2; [14]): 57.4 pg/mL | IL-2 Concentration (IL-2; [15]): 56.9 pg/mL and 57.9 pg/mL | IL-2 conc/live cell (IL-2; [15]): 10.9 pg/10^5 and 12.1 pg/10^5 | MFI, Bead name: IL-2 (IL-2; [15]): 92.5 and 94.0 | IL-2 conc/live cell (IL-2; [16]): 11.5 pg/10^5 | MFI, Bead name: IL-2 (IL-2; [16]): 96.3 | IL-2 Concentration (IL-2; [16]): 59.3 pg/mL | IL-2 Concentration (IL-2; [17]): 45.4 pg/mL and 73.2 pg/mL | IL-2 conc/live cell (IL-2; [17]): 10.3 pg/10^5 and 12.6 pg/10^5 | MFI, Bead name: IL-2 (IL-2; [17]): 75.0 and 117.5 | IL-2 conc/live cell (IL-2; [18]): 11.4 pg/10^5 | MFI, Bead name: IL-2 (IL-2; [18]): 101.5 | IL-2 Concentration (IL-2; [18]): 62.8 pg/mL | IL-2 Concentration (IL-2; [19]): 59.8 pg/mL and 65.7 pg/mL | IL-2 conc/live cell (IL-2; [19]): 10.9 pg/10^5 and 11.9 pg/10^5 | MFI, Bead name: IL-2 (IL-2; [19]): 97.0 and 106.0 | IL-2 conc/live cell (IL-2; [20]): 11.3 pg/10^5 | MFI, Bead name: IL-2 (IL-2; [20]): 113.5 | IL-2 Concentration (IL-2; [20]): 70.6 pg/mL | IL-2 Concentration (IL-2; [21]): 69.6 pg/mL and 71.5 pg/mL | IL-2 conc/live cell (IL-2; [21]): 10.9 pg/10^5 and 11.7 pg/10^5 | MFI, Bead name: IL-2 (IL-2; [21]): 112.0 and 115.0 | IL-2 conc/live cell (IL-2; [22]): 2.2 pg/10^5 | MFI, Bead name: IL-2 (IL-2; [22]): 29.0 | IL-2 Concentration (IL-2; [22]): 14.6 pg/mL | IL-2 Concentration (IL-2; [23]): 13.2 pg/mL and 16.0 pg/mL | IL-2 conc/live cell (IL-2; [23]): 2.1 pg/10^5 and 2.3 pg/10^5 | MFI, Bead name: IL-2 (IL-2; [23]): 27.0 and 31.0 | viability at 24 h, 0.001 µM ([1]; PBMC + LPS(5 ug/ml) + compound 0.001 uM): 84.3 ± 2.6% | viability at 24 h, 0.01 µM ([1]; PBMC + LPS(5 ug/ml) + compound 0.01 uM): 77.3 ± 5% | viability at 24 h, 0.1 µM ([1]; PBMC + LPS(5 ug/ml) + compound 0.1 uM): 75.7 ± 4.7% | viability at 24 h, 1 µM ([1]; PBMC + LPS(5 ug/ml) + compound 1 uM): 66.7 ± 5.8% | viability at 24 h, 10 µM ([1]; PBMC + LPS(5 ug/ml) + compound 10 uM): 73.7 ± 4.8% | viability at 24 h, 100 µM ([1]; PBMC + LPS(5 ug/ml) + compound 100 uM): 76.7 ± 5.2% | viability at 24 h, 0.01 µM ([1]; PBMC + compound 0.01 uM, no LPS): 85 ± 2% | viability at 24 h, 0.1 µM ([1]; PBMC + compound 0.1 uM, no LPS): 84% | viability at 24 h, 1 µM ([1]; PBMC + compound 1 uM, no LPS): 89.5 ± 2.5% | viability at 24 h, 10 µM ([1]; PBMC + compound 10 uM, no LPS): 86 ± 1% | viability at 24 h, 100 µM ([1]; PBMC + compound 100 uM, no LPS): 86.5 ± 1.5%
